Entries after “also recorded” stand apart in the source; their conditions may differ.
System: Pneumocystis carinii
Experiment: Treatment of Pneumocystis carinii pneumonia in Sprague-Dawley rats (extent of disease by histologic score)
Format: in vivo, male Sprague-Dawley rats
Details: for Extent of Disease by Histologic Score: number of animals with score 0.5 / Extent of disease by histologic score (combined): number of animals in scoring group 0.5: 0.5 = <10 cysts found per 2 sections; for Extent of Disease by Histologic Score: number of animals with score 1 / Extent of disease by histologic score (combined): number of animals in scoring group 1: 1 = scattered cysts, <5% of lung involved; for Extent of Disease by Histologic Score: number of animals with score 2 / Extent of disease by histologic score (combined): number of animals in scoring group 2: 2 = scattered cysts; for Extent of Disease by Histologic Score: number of animals with score 2: 5-10% lung involved or small foci of infection; for Extent of Disease by Histologic Score: number of animals with score 3 / Extent of disease by histologic score (combined): number of animals in scoring group 3: 3 = scattered cysts; for Extent of disease by histologic score (combined): number of animals in scoring group 0.5 / Extent of disease by histologic score (combined): number of animals in scoring group 1 / Extent of disease by histologic score (combined): number of animals in scoring group 2 / Extent of disease by histologic score (combined): number of animals in scoring group 3 / Extent of disease by histologic score (combined): number of animals in scoring group 4: Table XII composite, 10 mg/kg; for Extent of disease by histologic score (combined): number of animals in scoring group 2: 5-10% of lung involved
Procedure: Induction and Treatment Of Pneumocystis Carinii in Sprague-Dawley Rats
Male Sprague-Dawley rats, barrier raised, non-certified virus free, weighing 150-200g were obtained from Hilltop Laboratories and housed individually. Animals were begun on a low (8%) protein diet (ICN Biomedicals, Cincinnati, OH) and drinking water containing tetracycline (0.5 mg/ml) and dexamethasone (1.0 μg/ml) immediately upon arrival. This treatment was given for the next 8 weeks, monitoring fluid intake daily and weighing animals weekly. Dilutions of the drinking solution were made when animals consumed too much fluid so as to prevent cortisone poisoning. At the beginning of the sixth week, animals were divided into groups of 8 animals each and the test compounds were administered daily by i.v. injection at a dose of 10 mg/kg, unless otherwise noted, for the next 14 days.
Animals were sacrificed at the end of the eighth week by chloroform inhalation and the left lung was removed aseptically and placed in sterile Hank's balanced salts solution without calcium or magnesium (HBSS-) for the ground tissue procedure. The right lung was inflated in situ with 10% […] and removed for histologic examination GMS staining. […]

[1] = 10 mg/kg i.v. daily, 14 days, 10-50% of lung involved with some intense areas of infection
[2] = 10 mg/kg i.v. daily, 14 days, 4 = >50% of lung involved with many intense areas of focal infection
[3] = 10 mg/kg unless otherwise noted

N=C(N)c1ccc(OCCOc2ccc(C(=N)N)cc2N)c(N)c1 [Example 3]
Extent of Disease by Histologic Score: number of animals with score 0.5 (10 mg/kg i.v. daily, 14 days): 4 animals
Extent of Disease by Histologic Score: number of animals with score 1 (10 mg/kg i.v. daily, 14 days): 4 animals
Extent of Disease by Histologic Score: number of animals with score 2 (10 mg/kg i.v. daily, 14 days): 0 animals
Extent of Disease by Histologic Score: number of animals with score 3 [1]: 0 animals
Extent of Disease by Histologic Score: number of animals with score 4 [2]: 0 animals
Efficacy in treating PCP compared with control [3]: significantly better than the control
Efficacy in treating PCP compared with pentamidine [3]: approximately comparable to pentamidine in efficacy
Extent of disease by histologic score (combined): number of animals in scoring group 0.5: 4 animals
Extent of disease by histologic score (combined): number of animals in scoring group 1: 4 animals
Extent of disease by histologic score (combined): number of animals in scoring group 2: 0 animals
Extent of disease by histologic score (combined): number of animals in scoring group 3 (10-50% of lung involved): 0 animals
Extent of disease by histologic score (combined): number of animals in scoring group 4 (4 = >50% of lung involved): 0 animals

N=C(N)c1ccc(OCCCOc2ccc(C(=N)N)cc2)cc1 [Example 4]
Extent of Disease by Histologic Score: number of animals with score 0.5 (10 mg/kg i.v. daily, 14 days): 3 animals
Extent of Disease by Histologic Score: number of animals with score 1 (10 mg/kg i.v. daily, 14 days): 4 animals
Extent of Disease by Histologic Score: number of animals with score 2 (10 mg/kg i.v. daily, 14 days): 1 animals
Extent of Disease by Histologic Score: number of animals with score 3 [1]: 0 animals
Extent of Disease by Histologic Score: number of animals with score 4 [2]: 0 animals
Efficacy in treating PCP compared with pentamidine [3]: better at controlling the extent of the pcp infection than either para- or meta- pentamidine
Extent of disease by histologic score (combined): number of animals in scoring group 0.5: 3 animals
Extent of disease by histologic score (combined): number of animals in scoring group 1: 4 animals
Extent of disease by histologic score (combined): number of animals in scoring group 2: 1 animals
Extent of disease by histologic score (combined): number of animals in scoring group 3 (10-50% of lung involved): 0 animals
Extent of disease by histologic score (combined): number of animals in scoring group 4 (4 = >50% of lung involved): 0 animals

N=C(N)c1ccc(OCCCOc2ccc(C(=N)N)cc2N)c(N)c1 [Example 5]
Extent of Disease by Histologic Score: number of animals with score 0.5 (10 mg/kg i.v. daily, 14 days): 2 animals
Extent of Disease by Histologic Score: number of animals with score 1 (10 mg/kg i.v. daily, 14 days): 4 animals
Extent of Disease by Histologic Score: number of animals with score 2 (10 mg/kg i.v. daily, 14 days): 1 animals
Extent of Disease by Histologic Score: number of animals with score 3 [1]: 0 animals
Extent of Disease by Histologic Score: number of animals with score 4 [2]: 0 animals
Efficacy in treating PCP compared with control [3]: significantly better than the control
Efficacy in treating PCP compared with pentamidine [3]: approximately comparable to pentamidine in efficacy
Extent of disease by histologic score (combined): number of animals in scoring group 0.5: 2 animals
Extent of disease by histologic score (combined): number of animals in scoring group 1: 4 animals
Extent of disease by histologic score (combined): number of animals in scoring group 2: 1 animals
Extent of disease by histologic score (combined): number of animals in scoring group 3 (10-50% of lung involved): 0 animals
Extent of disease by histologic score (combined): number of animals in scoring group 4 (4 = >50% of lung involved): 0 animals

N=C(N)c1ccc(NCCCNc2ccc(C(=N)N)cc2)cc1 [Example 7]
Extent of Disease by Histologic Score: number of animals with score 0.5 (10 mg/kg i.v. daily, 14 days): 5 animals
Extent of Disease by Histologic Score: number of animals with score 1 (10 mg/kg i.v. daily, 14 days): 1 animals
Extent of Disease by Histologic Score: number of animals with score 2 (10 mg/kg i.v. daily, 14 days): 2 animals
Extent of Disease by Histologic Score: number of animals with score 3 [1]: 0 animals
Extent of Disease by Histologic Score: number of animals with score 4 [2]: 0 animals
Efficacy in treating PCP compared with pentamidine [3]: better than or equal to pentamidine
Extent of disease by histologic score (combined): number of animals in scoring group 0.5: 5 animals
Extent of disease by histologic score (combined): number of animals in scoring group 1: 1 animals
Extent of disease by histologic score (combined): number of animals in scoring group 2: 2 animals
Extent of disease by histologic score (combined): number of animals in scoring group 3 (10-50% of lung involved): 0 animals
Extent of disease by histologic score (combined): number of animals in scoring group 4 (4 = >50% of lung involved): 0 animals
Efficacy in treating PCP compared with related compounds of the series (effect of chain length or substituent): most effective

N=C(N)c1ccc(OCCCCOc2ccc(C(=N)N)cc2)cc1 [Example 9, butamidine]
Extent of Disease by Histologic Score: number of animals with score 0.5 (0.1 mg/kg): 0 animals
Extent of Disease by Histologic Score: number of animals with score 1 (0.1 mg/kg): 0 animals
Extent of Disease by Histologic Score: number of animals with score 2 (0.1 mg/kg): 4 animals
Extent of Disease by Histologic Score: number of animals with score 3 (0.1 mg/kg, 10-50% of lung involved): 5 animals
Extent of Disease by Histologic Score: number of animals with score 4 (0.1 mg/kg, 4 = >50% of lung involved): 2 animals
Efficacy in treating PCP compared with pentamidine (1 mg/kg or 0.1 mg/kg): essentially no difference in the two compounds
Extent of Disease by Histologic Score: number of animals with score 0.5 (1 mg/kg): 0 animals
Extent of Disease by Histologic Score: number of animals with score 1 (1 mg/kg): 1 animals
Extent of Disease by Histologic Score: number of animals with score 2 (1 mg/kg): 3 animals
Extent of Disease by Histologic Score: number of animals with score 3 (1 mg/kg, 10-50% of lung involved): 5 animals
Extent of Disease by Histologic Score: number of animals with score 4 (1 mg/kg, 4 = >50% of lung involved): 3 animals
Extent of Disease by Histologic Score: number of animals with score 2 (10 mg/kg i.v. daily, 14 days): 0 animals
Extent of Disease by Histologic Score: number of animals with score 3 [1]: 0 animals
Extent of Disease by Histologic Score: number of animals with score 4 [2]: 0 animals
Efficacy in treating PCP compared with pentamidine [3]: significantly better than pentamidine in controlling pcp; also recorded: significantly better than pentamidine at the 10 mg/kg dosage level
Extent of disease by histologic score (combined): number of animals in scoring group 0.5: 8 animals
Extent of disease by histologic score (combined): number of animals in scoring group 1: 0 animals
Extent of disease by histologic score (combined): number of animals in scoring group 2: 0 animals
Extent of disease by histologic score (combined): number of animals in scoring group 3 (10-50% of lung involved): 0 animals
Extent of disease by histologic score (combined): number of animals in scoring group 4 (4 = >50% of lung involved): 0 animals

N=C(N)c1ccc(OCCCCOc2ccc(C(=N)N)cc2N)c(N)c1 [Example 10]
Extent of Disease by Histologic Score: number of animals with score 0.5 (10 mg/kg i.v. daily, 14 days): 2 animals
Extent of Disease by Histologic Score: number of animals with score 1 (10 mg/kg i.v. daily, 14 days): 5 animals
Extent of Disease by Histologic Score: number of animals with score 2 (10 mg/kg i.v. daily, 14 days): 1 animals
Extent of Disease by Histologic Score: number of animals with score 3 [1]: 0 animals
Extent of Disease by Histologic Score: number of animals with score 4 [2]: 0 animals
Efficacy in treating PCP compared with control [3]: significantly better than the control
Efficacy in treating PCP compared with pentamidine [3]: approximately comparable to pentamidine in efficacy
Extent of disease by histologic score (combined): number of animals in scoring group 0.5: 2 animals
Extent of disease by histologic score (combined): number of animals in scoring group 1: 5 animals
Extent of disease by histologic score (combined): number of animals in scoring group 2: 1 animals
Extent of disease by histologic score (combined): number of animals in scoring group 3 (10-50% of lung involved): 0 animals
Extent of disease by histologic score (combined): number of animals in scoring group 4 (4 = >50% of lung involved): 0 animals

N=C(N)c1ccc(OCCCCCOc2ccc(C(=N)N)cc2N)c(N)c1 [Example 14]
Extent of Disease by Histologic Score: number of animals with score 4 [2]: 0 animals
Efficacy in treating PCP compared with control [3]: significantly better than the control
Efficacy in treating PCP compared with pentamidine [3]: improved performance in treating pcp; also recorded: approximately comparable to pentamidine in efficacy
Extent of disease by histologic score (combined): number of animals in scoring group 0.5: 8 animals
Extent of disease by histologic score (combined): number of animals in scoring group 1: 5 animals
Extent of disease by histologic score (combined): number of animals in scoring group 2: 1 animals
Extent of disease by histologic score (combined): number of animals in scoring group 3 (10-50% of lung involved): 1 animals
Extent of disease by histologic score (combined): number of animals in scoring group 4 (4 = >50% of lung involved): 0 animals
